Assay results from the CheMixHub viscosity set.
“And” between values parts separate entries of the source, which are not always exact repeats. Equal values may be shown once.

Key:
[1] = xn = mol fraction of the nth substance listed

CC(CC(C)(C)C)CP(=O)(O)CC(C)CC(C)(C)C (stereo not given) + ClC(Cl)Cl
[1], 298.15 K, 101 kPa
Conditions | viscosity [mPa·s]
x1 = 0.0053 | 0.568
x1 = 0.0095 | 0.615
x1 = 0.011 | 0.638
x2 = 0.1271 | 90.02
x2 = 0.2117 | 75.09
x2 = 0.3912 | 50.44
x2 = 0.5499 | 30.02
x2 = 0.7028 | 11.91
x2 = 0.7739 | 6.921
x2 = 0.8002 | 5.613
x2 = 0.8091 | 5.202
x2 = 0.8378 | 3.942
x2 = 0.8852 | 2.458
x2 = 0.8924 | 2.301
x2 = 0.9394 | 1.35
x2 = 0.9426 | 1.28
x2 = 0.9762 | 0.818

CNC(C)=O + CO
[1], 303.15 K, 101 kPa
Conditions | viscosity [mPa·s]
x1 = 0.0999 | 0.644
x1 = 0.2019 | 0.798
x1 = 0.3029 | 0.98
x1 = 0.3939 | 1.175
x1 = 0.504 | 1.457
x1 = 0.605 | 1.778
x1 = 0.6998 | 2.134
x1 = 0.7934 | 2.561
x1 = 0.8995 | 3.14

CNCCO
viscosity
Conditions | 293.15 K | 298.15 K | 303.15 K | 308.15 K | 313.15 K | 318.15 K | 323.15 K
101 kPa | – | – | 8.596 mPa·s | 7.075 mPa·s | 5.892 mPa·s | 4.949 mPa·s | 4.204 mPa·s
101.3 kPa | 13.23 mPa·s | 10.63 mPa·s | 8.612 mPa·s and 8.535 mPa·s | 7.07 mPa·s and 7.014 mPa·s | 5.883 mPa·s and 5.841 mPa·s | 4.953 mPa·s and 4.919 mPa·s | 4.214 mPa·s and 4.186 mPa·s
101.33 kPa | – | 12 mPa·s | 9.528 mPa·s | – | 6.396 mPa·s | – | –

CCCCCCCCBr
101 kPa
Conditions | viscosity [mPa·s]
293.15 K | 1.544
303.55 K | 1.406
313.65 K | 1.204

CC(C)CCO + C1COCO1
viscosity [mPa·s], [1], 101 kPa
Conditions | x2 = 0.1168 | x2 = 0.2293 | x2 = 0.3377 | x2 = 0.4424 | x2 = 0.5434 | x2 = 0.6409 | x2 = 0.7352 | x2 = 0.8264 | x2 = 0.9146
298.15 K | 3.017 | 2.523 | 2.174 | 1.884 | 1.366 | 0.9079 | 0.8074 | 0.7367 | 0.6474
303.15 K | 2.3 | 1.806 | 1.458 | 1.167 | 0.9949 | 0.8818 | 0.7812 | 0.7104 | 0.6212

CC(C)CCO + COc1ccccc1
viscosity [mPa·s], [1], 101.33 kPa
Conditions | x2 = 0.1002 | x2 = 0.2 | x2 = 0.3005 | x2 = 0.3997 | x2 = 0.5004 | x2 = 0.6014 | x2 = 0.7004 | x2 = 0.8003 | x2 = 0.9008
303.15 K | 2.52 | 2.023 | 1.657 | 1.401 | 1.216 | 1.087 | 0.999 | 0.944 | 0.916
313.15 K | 1.905 | 1.545 | 1.283 | 1.101 | 0.974 | 0.893 | 0.843 | 0.816 | 0.801
323.15 K | 1.484 | 1.224 | 1.036 | 0.908 | 0.823 | 0.769 | 0.735 | 0.715 | 0.701

CNC(C)=O + CC(C)(C)O
[1], 303.15 K, 101 kPa
Conditions | viscosity [mPa·s]
x1 = 0.0809 | 4.253
x1 = 0.1017 | 4.365
x1 = 0.2071 | 4.448
x1 = 0.3102 | 4.22
x1 = 0.4103 | 4.026
x1 = 0.5002 | 3.864
x1 = 0.6021 | 3.776
x1 = 0.7095 | 3.752
x1 = 0.8039 | 3.747
x1 = 0.9007 | 3.778

CC(C)CCO + CCCCOC(C)=O
[1], 308 K, 101 kPa
Conditions | viscosity [mPa·s]
x2 = 0.0998 | 2.631
x2 = 0.2003 | 2.091
x2 = 0.3001 | 1.715
x2 = 0.3999 | 1.418
x2 = 0.4998 | 1.221
x2 = 0.5999 | 1.019
x2 = 0.6997 | 0.917
x2 = 0.8002 | 0.811
x2 = 0.9002 | 0.734

CC[N+](CC)(CC)CC.[Br-] + OCCO
viscosity [mPa·s], [1], 100 kPa
Conditions | 298 K | 298.15 K | 308 K | 318 K
x1 = 0.333 | – | 37.5 | – | –
x2 = 0.75 | 28 | – | 18.5 | 13

CCOCCO + CCO
[1], 298.15 K, 101 kPa
Conditions | viscosity [mPa·s]
x1 = 0.0538 | 1.147
x1 = 0.1133 | 1.207
x1 = 0.1798 | 1.272
x1 = 0.2542 | 1.341
x1 = 0.3383 | 1.416
x1 = 0.4341 | 1.497
x1 = 0.544 | 1.581
x1 = 0.6716 | 1.669
x1 = 0.8215 | 1.761

CC(C)CCO + OCCCCO
viscosity [mPa·s], [1], 100 kPa
Conditions | x1 = 0.0812 | x1 = 0.1634 | x1 = 0.2525 | x1 = 0.3428 | x1 = 0.4555 | x1 = 0.5459 | x1 = 0.6484 | x1 = 0.7582 | x1 = 0.8761
298.15 K | 67.45 | 62.1 | 56.19 | 50.09 | 42.34 | 36.04 | 28.79 | 20.97 | 12.53
303.15 K | 53.11 | 49.29 | 45.07 | 40.5 | 34.55 | 29.64 | 23.86 | 17.53 | 10.61
308.15 K | 42.18 | 39.46 | 36.34 | 32.86 | 28.33 | 24.49 | 19.94 | 14.75 | 9.039

CC(C)CCO + OCCO
viscosity [mPa·s], [1], 100 kPa
Conditions | x1 = 0.0538 | x1 = 0.1127 | x1 = 0.1769 | x1 = 0.2492 | x1 = 0.3333 | x1 = 0.4312 | x1 = 0.5385 | x1 = 0.6667 | x1 = 0.8167
298.15 K | 17.29 | 16.59 | 15.84 | 14.92 | 13.82 | 12.46 | 10.93 | 8.999 | 6.622
303.15 K | 13.53 | 13.1 | 12.52 | 11.8 | 10.97 | 9.889 | 8.629 | 7.087 | 5.243
308.15 K | 11.48 | 11.11 | 10.72 | 10.22 | 9.549 | 8.689 | 7.683 | 6.336 | 4.792
